# Measured values as given in the supplement of paper PMC10307832.
# Legend:
# Experiment in all cases: relative viability (nuclei count vs DMSO), 5 days (fraction); higher = more cells survive
# Ibrutinib + Navitoclax = compound: C=CC(=O)N1CCC[C@@H](n2nc(-c3ccc(Oc4ccccc4)cc3)c3c(N)ncnc32)C1 [Ibrutinib] + CC1(C)CCC(c2ccc(Cl)cc2)=C(CN2CCN(c3ccc(C(=O)NS(=O)(=O)c4ccc(N[C@H](CCN5CCOCC5)CSc5ccccc5)c(S(=O)(=O)C(F)(F)F)c4)cc3)CC2)C1 [Navitoclax] (partner 0.5 µM)
# Outline: (§1)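 The day after seeding in 1536-well plates, lung cancer cell lines were treated by pin tool with a single drug, or with a fixed anchor-drug dose together with five library-drug doses (not always all listed) in √10 steps. After 5 days, a combined fix-and-stain solution (final 0.05% Triton X-100, 1% formaldehyde, 1 ug/ml Hoechst) was added. Nuclei counted on 4× images gave relative viability as treated counts over vehicle counts, reported as the median of duplicate plates.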
# Ibrutinib + OSI-027 = compound: C=CC(=O)N1CCC[C@@H](n2nc(-c3ccc(Oc4ccccc4)cc3)c3c(N)ncnc32)C1 [Ibrutinib] + COc1cccc2cc(-c3nc([C@H]4CC[C@H](C(=O)O)CC4)n4ncnc(N)c34)[nH]c12 [OSI-027] (partner 0.5 µM)
# Outline: as §1
# BMX-IN-1 + Palbociclib = compound: C=CC(=O)Nc1cc(-n2c(=O)ccc3cnc4ccc(-c5ccc(NS(C)(=O)=O)cc5)cc4c32)ccc1C [BMX-IN-1] + CC(=O)c1c(C)c2cnc(Nc3ccc(N4CCNCC4)cn3)nc2n(C2CCCC2)c1=O [Palbociclib] (partner 0.5 µM)
# Outline: as §1
# PAC-1 + Pemetrexed = compound: C=CCc1cccc(/C=N/NC(=O)CN2CCN(Cc3ccccc3)CC2)c1O [PAC-1] + Nc1nc2[nH]cc(CCc3ccc(C(=O)N[C@@H](CCC(=O)O)C(=O)O)cc3)c2c(=O)[nH]1 [Pemetrexed] (partner 0.2 µM)
# Outline: as §1
Cell Line,relative viability (Ibrutinib + Navitoclax; first compound 0.005 µM),relative viability (Ibrutinib + Navitoclax; first compound 0.01581 µM),relative viability (Ibrutinib + Navitoclax; first compound 0.05 µM),relative viability (Ibrutinib + Navitoclax; first compound 0.1581 µM),relative viability (Ibrutinib + Navitoclax; first compound 0.5 µM),relative viability (Ibrutinib + OSI-027; first compound 0.005 µM),relative viability (Ibrutinib + OSI-027; first compound 0.01581 µM),relative viability (Ibrutinib + OSI-027; first compound 0.05 µM),relative viability (Ibrutinib + OSI-027; first compound 0.1581 µM),relative viability (Ibrutinib + OSI-027; first compound 0.5 µM),relative viability (BMX-IN-1 + Palbociclib; first compound 0.02 µM),relative viability (BMX-IN-1 + Palbociclib; first compound 0.2 µM),relative viability (BMX-IN-1 + Palbociclib; first compound 0.6325 µM),relative viability (BMX-IN-1 + Palbociclib; first compound 2 µM),relative viability (PAC-1 + Pemetrexed; first compound 0.02 µM),relative viability (PAC-1 + Pemetrexed; first compound 0.06325 µM),relative viability (PAC-1 + Pemetrexed; first compound 0.2 µM),relative viability (PAC-1 + Pemetrexed; first compound 2 µM)
NCI-H1975,1.04,1.14,1.08,1.09,0.637,0.681,0.624,0.498,0.692,0.357,1,0.655,0.685,0.698,0.295,0.279,0.306,0.289
NCI-H1993,0.807,0.7,0.75,–,0.742,0.574,0.566,0.584,0.552,0.692,0.706,0.683,0.646,0.55,0.636,0.565,0.59,0.589
NCI-H2009,1.13,1.12,1.22,1.21,1.16,0.522,0.631,0.585,0.729,0.804,0.182,0.212,0.207,0.254,1.03,0.989,1.1,0.989
NCI-H2023,1.02,0.919,0.884,1.07,0.871,0.28,0.315,0.349,0.504,0.375,0.48,0.389,0.386,0.381,0.211,0.215,0.244,0.229
NCI-H2085,1.1,1.13,1,1.13,–,0.502,0.627,0.663,0.556,0.562,0.473,0.438,0.484,0.46,0.945,0.885,0.953,1.03
NCI-H2087,1.05,0.952,1.12,1,0.939,0.407,0.504,1.08,–,0.542,0.214,0.229,0.252,0.257,0.675,0.641,0.663,0.724
NCI-H2126,–,0.803,0.801,0.861,0.588,–,0.59,0.537,0.537,0.632,0.379,0.345,0.363,0.322,0.679,0.722,0.755,0.654
NCI-H2170,0.377,0.343,0.235,0.527,0.195,0.48,0.587,0.459,0.822,0.272,0.426,0.421,0.447,0.373,0.259,0.252,0.257,0.278
NCI-H2228,0.859,0.838,0.932,0.911,0.836,0.511,–,0.478,0.481,0.509,0.948,0.878,0.608,0.785,0.344,0.361,0.325,0.346
NCI-H2347,0.898,0.724,0.846,0.729,0.717,–,0.383,0.374,0.302,0.57,0.443,0.406,0.458,0.393,0.412,0.435,0.41,0.46
NCI-H2405,0.923,0.812,0.731,–,0.98,0.54,0.627,0.63,0.662,0.638,0.574,0.585,0.584,0.542,1.08,1.06,1.06,1.02
NCI-H3122,1.06,0.971,1.06,0.956,1.06,0.895,0.921,0.955,0.671,1.32,0.193,0.204,0.174,0.164,0.196,0.199,0.201,0.207
PC-3 [JPC-3],0.82,0.805,0.598,0.824,0.488,0.635,0.7,0.619,0.84,0.584,0.544,0.598,0.546,0.521,1.09,1.32,1.25,1.09
PC-14,1.04,1.05,1.12,1.05,0.922,0.71,0.689,0.641,0.907,0.554,0.583,0.478,0.58,0.47,0.13,0.139,0.126,0.179
RERF-LC-KJ,0.872,–,0.699,0.745,0.677,0.516,0.441,0.497,0.579,0.489,1.15,1.11,1.18,1.16,0.509,0.463,0.483,0.449
SK-LU-1,0.722,0.637,1.07,0.948,0.036,0.262,0.324,0.301,0.397,0.381,0.323,0.399,0.385,0.335,0.944,1.02,0.915,0.99
SW 1573,0.904,0.857,1.01,0.95,0.848,0.436,0.517,0.653,0.704,0.651,0.411,0.413,0.391,0.334,0.831,0.778,0.83,0.855
